Results reported in patent US20110097268A1, “RADIOHALOIMATINIBS AND METHODS OF THEIR SYNTHESIS AND USE IN PET IMAGING OF CANCERS” (priority 2006, published 2011).

Test: Storage stability of STI-Cl at room temperature
Assay type: physicochemical
Text: Attempts to make radiolabeling precursor, triflate, mesylate active leaving group from STI-OH failed because it was easily degraded into a mixture of starting material alcohol and STI-Cl during the purification of chromatography on Silica Gel. The behavior of these β-triflate amines may be due to the participation effect of nitrogen which cause triflate to leave by aliphatic chain cyclisation giving the aziridinium ion, which in turn reacts with the nucleophilic agent OH^−, Cl^−. In order to get a pure precursor, STI-Cl analog was selected as a target compound. The hydroxyl-Benzoic acid (9c) was treated with thionyl chloride to achieve the corresponding chloro-acid chloride dihydrochloride (10d). Subsequent condensation with N-(2-Methyl-5-aminophenyl)-4-(3-pyridyl)-2-pyrimidine-amine (6) in pyridine affords the STI-Cl. […] The Sti-Cl was treated with tetra ammonia fluoride at 80° C. in acetonitrile for 30 mins to generate cold Sti-F. Sti-Cl was also treated with tetra ammonia fluoride at 80° C. in acetonitrile microwave for 5 mins to generate cold Sti-F. The traditional heating method gave more yield and the microwave condition gave more clean reaction. (FIG. 3).

Q: With `Cc1ccc(NC(=O)c2ccc(CN3CCN(CCCl)CC3)cc2)cc1Nc1nccc(-c2cccnc2)n1` [STI-Cl] as the compound, how does the stability read?
A: not stable and decomposed at room temperature over two weeks
